Experimental data taken from patent publication US6384063B1, “Compound having effect of promoting neuron differentiation” (Nippon Kayaku Kabushiki Kaisha, priority 1997, dated 2002).
Entries after “also recorded” stand apart in the source; their conditions may differ.

Test system: not listed separately
Assay: Solubility of NA32176A (physicochemical properties)
Conditions: qualitative, by solvent; listed as NA32176A
Excerpt: Physicochemical properties of the thus obtained physiologically active substance NA32176A are shown below.

For `CC(C)(CO)C(O)C(=O)NCCC(=O)NCCSCC1C(=O)CCC1C(=O)O` [Compound 1E, (1R,2S)-2-[N-(panthoyl- -alanylamido)ethylthio]methyl-3-oxo-1-cyclopentanecarboxylic Acid], the Solubility was “soluble in a lower alcohol, water or dimethylsulfoxide; also recorded: insoluble in hexane or petroleum ether”.

Test system: PC12 cells
Assay: Neuron-like neurite extension on PC12 cells
Format: cell-based, rat
Conditions: morphological change observed microscopically one day after adding test compound
Excerpt: Neuron-like neurite extension effect of the compounds of this invention on PC12 cells
The effect of the compounds of the invention was examined by a modification of the method of Green et al., Ann. Rev. Neurosci., 3, 353, 1980, and evaluated in terms of morphological change of PC12 cells and a level of the change. That is, PC12 cells were inoculated on Dulbecco-modified Eagle's medium supplemented with 10% calf fetal serum and 10% equine serum in approximately 100,000 cells/ml. The cells were incubated at 37° C. overnight in 5% CO2 using collagen-coated 96 well multiplates. Morphological change of the cells was microscopically observed one day after the test compound was added to each well under this conditions.
The minimum effective dose (MED, g/ml) of each compound on PC12 cells that caused neuron-like neurite extension is shown in Table 2 below.

Point of comparison: “4-(1-piperazinyl)methyl-5-oxo-5-phenylpentanoic Acid [Compound 42F]”, Minimum effective dose (MED) to cause neuron-like neurite extension on PC12 cells 1.6 µg/mL. Against it:
- COC(=O)[C@@H]1CCN1C(=O)[C@H](CSC[C@@H]1C(=O)CC[C@H]1C(=O)O)NC(C)=O (relative stereo) [Compound 7B, trans-2-[(2R)-[2-acetylamino-3-{1-((2S)-2-methoxycarbonylazetidinyl)}-3-oxo]propylthio]methyl-3-oxo-1-cyclopentanecarboxylic Acid] — 1.9-fold higher, 3.1 µg/mL
- CC(=O)N[C@@H](CSC[C@@H]1C(=O)CC[C@H]1C(=O)O)C(=O)N1CCCC1 [Compound 1B, (1R,2S)-2-[(2R)-{2-acetylamino-3-oxo-3-(1-pyrrolidinyl)}propylthio]methyl-3-oxo-1-cyclopentanecarboxylic Acid] — 2-fold higher, 3.2 µg/mL
- CN1CCN(CC(CC(=O)O)C(=O)c2ccccc2)CC1 (stereo not shown) [Compound 6F, 3-{1-(4-methylpiperazinyl)}methyl-4-oxo-4-phenylbutyric acid] — 1.9-fold higher, 3.1 µg/mL
- CC(=O)N[C@@H](CSCC1CC(C(=O)O)CC1=O)C(=O)O (stereo partly drawn) [Compound 1A, 4-[(2R)-(2-acetylamino-2-carboxy)ethylthio]methyl-3-oxo-1-cyclopentanecarboxylic Acid] — 2-fold higher, 3.2 µg/mL
- CC(=O)N[C@@H](CSC[C@@H]1C(=O)CC[C@H]1C(=O)O)C(=O)N1CCOCC1 [Compound 2B, (1R,2S)-2-[(2R)-{2-acetylamino-3-(4-morpholinyl)-3-oxo}propylthio]methyl-3-oxo-1-cyclopentanecarboxylic Acid] — the same, 1.6 µg/mL
- CC(=O)N[C@@H](CSC[C@@H]1C(=O)CC[C@H]1C(=O)O)C(=O)N1CCN(c2ccccc2)CC1 [Compound 13B, (1R,2S)-2-[(2R)-2-acetylamino-3-oxo-3-{1-(4-phenyl)piperazinyl}propylthio]methyl-3-oxo-1-cyclopentanecarboxylic Acid] — the same, 1.6 µg/mL
- (1R,2S)-2-[(2R)-({2-carboxy-2-pentafluoropropionylamino)ethylthio]methyl-3-oxo-1-cyclopentanecarboxylic acid [Compound 4B] — 2-fold higher, 3.2 µg/mL
- COC(=O)[C@H](CSCC(CC(=O)O)C(=O)c1cccnc1)NC(C)=O (stereo partly drawn) [Compound 32D, 3-[(2R)-(2-acetylamino-2-methoxycarbonyl)ethylthio]methyl-4-oxo-4-(3-pyridyl)butyric Acid] — 1.9-fold higher, 3.1 µg/mL
- COC(=O)[C@@H]1CCCN1C(=O)[C@H](CSC[C@@H]1C(=O)CC[C@H]1C(=O)O)NC(C)=O (relative stereo) [Compound 6B, trans-2-[(2R)-[2-acetylamino-3-{1-((2S)-2-methoxycarbonylpyrrolidinyl)}-3-oxo]propylthio]methyl-3-oxo-1-cyclopentanecarboxylic Acid] — the same, 1.6 µg/mL
- COC(=O)[C@H](CSCC(CC(=O)O)C(=O)c1ccccc1)NC(C)=O (stereo partly drawn) [Compound 8D, 3-[(2R)-(2-acetylamino-2-methoxycarbonyl)ethylthio]methyl-4-oxo-4-phenylbutyric Acid] — 3.9-fold higher, 6.3 µg/mL
- COC(=O)[C@@H]1CCC(=O)[C@H]1CSC[C@H](NC(C)=O)C(=O)N1CCCC1 (relative stereo) [Compound 5B, trans-2-[(2R)-{2-acetylamino-3-oxo-3-(1-pyrrolidinyl)}propylthio]methyl-3-methoxycarbonyl-1-cyclopentanone] — 2-fold lower, 0.8 µg/mL
- CC(=O)N[C@@H](CSCC(CC(=O)O)C(=O)c1ccccc1)C(=O)O (stereo partly drawn) [Compound 7D, 3-[(2R)-(2-acetylamino-2-carboxy)ethylthio]methyl-4-oxo-4-phenylbutyric Acid] — 8.1-fold higher, 13 µg/mL
- COC(=O)[C@H](CSCC(CC(=O)O)C(=O)c1ccc(C)cc1)NC(C)=O (stereo partly drawn) [Compound 13D, 3-{(2R)-(2-acetylamino-2-methoxycarbonyl)ethylthio}methyl-4-(4-methylphenyl)-4-oxobutyric Acid] — 8.1-fold higher, 13 µg/mL
- CC(=O)N[C@@H](CSCC1=C[C@H](O)CC1=O)C(=O)O [Compound 2C, (4R)-2-[(2R)-(2-acetylamino-2-carboxy)ethylthio]methyl-4-hydroxy-2-cyclopenten-1-one] — 3.9-fold higher, 6.3 µg/mL
- trans-2-[(2R)-(2-carboxy-2-pentafluoropropionylamino)ethylthio]methyl-3-hydroxymethyl-1-cyclopentanone [Compound 8B] — 2-fold lower, 0.8 µg/mL
- CC(=O)NC(CCCCCCCCCCSC[C@@H]1C(=O)CC[C@H]1C(=O)O)C(=O)O (relative stereo) [Compound 9B, trans-2-[(11-acetylamino-11-carboxy)undecylthio]methyl-3-oxo-1-cyclopentanecarboxylic acid] — 3.9-fold higher, 6.3 µg/mL
- 4-(4-methoxyphenyl)-4-oxo-3-(1-piperidyl)methylbutyric Acid [Compound 3F] — 1.9-fold higher, 3.1 µg/mL
- 2-methyl-4-oxo-4-phenyl-3-(1-piperazinyl)methylbutyric Acid [Compound 41F] — 3.9-fold higher, 6.3 µg/mL
- 4-(4-methylphenyl)-4-oxo-3-(1-piperidyl)methylbutyric Acid [Compound 2F] — 1.9-fold higher, 3.1 µg/mL
- COC(=O)[C@H](CSCC1C(=O)c2ccccc2C1C(=O)O)NC(C)=O (stereo partly drawn) [Compound 6A, 2-((2R)-(2-acetylamino-2-methoxycarbonyl)ethylthio)methyl-3-oxo-1-indanecarboxylic Acid] — 16-fold higher, 25 µg/mL
- COC(=O)[C@H](CSCC1CC(C(=O)O)CC1=O)NC(C)=O (stereo partly drawn) [Compound 2A, 4-[(2R)-(2-acetylamino-2-methoxycarbonyl)ethylthio]methyl-3-oxo-1-cyclopentanecarboxylic Acid] — 2-fold higher, 3.2 µg/mL
- COC(=O)[C@H](CSCC(CC(=O)O)C(=O)c1ccc(OC)cc1)NC(C)=O (stereo partly drawn) [Compound 9D, 3-[(2R)-(2-acetylamino-2-methoxycarbonyl)ethylthio]methyl-4-(4-methoxyphenyl)-4-oxobutyric Acid] — 31-fold higher, 50 µg/mL
- 3-{2-(acetylamino)ethylthio}methyl-4-(4-methylphenyl)-4-oxobutyric Acid [Compound 12D] — 8.1-fold higher, 13 µg/mL
- CC(=O)N[C@@H](CSCC(CCC(=O)O)C(=O)c1ccccc1)C(=O)O (stereo partly drawn) [Compound 38D, 4-[(2R)-{(2-acetylamino-2-carboxy)ethylthio}]methyl-5-oxo-5-phenylpentanoic acid] — 3.9-fold higher, 6.3 µg/mL
- C[n+]1cccc(CCCSCC2C(=O)CCC2C(=O)O)c1.[I-] [Compound 15B, (1R,2S)-2-[3-{3-(1-methylpyridinium iodide)}propylthio]methyl-3-oxo-1-cyclopentanecarboxylic Acid] — 1.9-fold higher, 3.1 µg/mL

Test system: PC 12 cells
Assay: not given
Conditions: qualitative, background art; cited from earlier work

In the case of `CN[C@@H]1C[C@H]2O[C@@](C)([C@@H]1OC)n1c3ccccc3c3c4c(c5c6ccccc6n2c5c31)C(=O)NC4` [staurosporin], the “PC 12 cell differentiation promoting activity” value is listed as “found to have the PC 12 cell differentiation promoting activity”.
